Entries after “also recorded” stand apart in the source; their conditions may differ.
Columns and labels:
neointima formation = conditions: animal models; cited from earlier work
MOLM13 cells = experiment: [14C]-thymidine incorporation cell proliferation assay, MOLM13; assay type: cell-based, human; conditions: Homo sapiens, MOLM-13, 72 hour incubation
Experimental: The cell proliferation inhibition potency of the CDK4/6-FLT3 inhibitors was determined by using a [^14C]-thymidine incorporation assay. Exponentially growing cells (MOLM-13, Colo-205, etc.) were seeded in a 96-well Cytostar T plate (GE Healthcare Biosciences) at a density of 5×10^3 cells/well and incubated overnight. Serially diluted compounds and 0.1 μCi of [^14C]-thymidine (GE Healthcare Biosciences) were added to each well on the following day. After 72 hour incubation, isotope incorporation was determined with a β plate counter (Wallac). MOLM13 is a human AML tumor cell line expressing FLT3, FLT3^ITD and wild type Rb.
(§1) IC50 values of the compounds in the above assays were determined by non-linear regression analysis using Prism (GraphPad Software).

[1] = tested on: Colo205 human colon carcinoma xenograft tumors; experiment: Tumor growth inhibition in Colo205 xenograft tumors; assay type: in vivo, CrTac:NCR-Foxn1nu nude mice
Experimental: The activity of Example 5 was evaluated in the human colon carcinoma, Colo205, xenograft tumor model. This cell line expresses CDK4/6 but not FLT3. Therefore, this system will measure the activity of Example 5 against CDK4/6. Colo205 cells (obtained from American Type Culture Collection, Manassas, Va., USA) were cultured in DMEM cell growth medium containing 10% fetal bovine serum (commercially obtained from Invitrogen, Carlsbad, Calif. USA). Two million cells were innoculated on the right flank of CrTac:NCR-Foxn1^nu nude mice (commercially available from Taconic Farms, Inc, Hudson, N.Y. USA) and allowed to grow for 13 days. Mice were then distributed into groups of 10 mice based on ranking of initial tumor volume to achieve groups in which the average tumor size was 170 mm^3 Example 5 was formulated in 2% HPMC (Hypermellose; HY122-13; commercially available from Spectrum Chemical Manufacturing Gardena, Calif. USA)/1% Tween-80 (Crillet 4 HP; commercially available from Croda, Inc Edison, N.J. USA) and dosed daily or twice daily 6 hours apart for a total of 10 days with 12.5 mg/kg, 25 mg/kg, 37.5 mg/kg, or 50 mg/kg. Tumors were measured every other day using two-dimensional calipers and tumor volumes were estimated using the equation Width^2×Length×0.5. […] Statistical significance was evaluated using RMANOVA on log transformed tumor volume with baseline as covariate.

[2] = tested on: MOLM13 subcutaneous xenograft tumors; experiment: Tumor growth inhibition in AML MOLM13 xenograft tumors; assay type: in vivo, CrTac:NCR-Foxn1nu nude mice
Experimental: The AML cell line, MOLM13, (obtained from American Type Culture Collection, Manassas, Va., USA) was cultured in RPMI-1640 cell growth medium containing 10% fetal bovine serum (commercially obtained from Invitrogen, Carlsbad, Calif. USA). This cell line expresses CDK4/6, one copy of wild type FLT3 kinase and one copy of FLT3-ITD, which results in constitutive activation of FLT3 activity. Therefore, the activity of Example 5 against both FLT3 and CDK4/6 can be tested in this tumor cell. Tumor cells (7.5 million) were injected subcutaneously onto the right flank of CrTac:NCR-Foxn1^nu nude mice (commercially available from Taconic Farms, Inc, Hudson, N.Y. USA). Tumors were allowed to grow for 6 days. […] Tumors were measured every other day using two-dimensional calipers and tumor volumes were estimated using the equation Width^2×Length×0.5. […] Statistical significance was evaluated using RMANOVA on log transformed tumor volume with baseline as covariate.

CDK4/Cyclin D1 = CDK4/Cyclin D1 (Homo sapiens (Human), UniProt P11802); experiment: CDK4 filtration kinase assay; assay type: biochemical; conditions: CDK4/Cyclin D1, Rb fragment substrate, [33P]-ATP filtration assay
Chain of CDK4/Cyclin D1 (P11802 whole entry, the tested form may be a part): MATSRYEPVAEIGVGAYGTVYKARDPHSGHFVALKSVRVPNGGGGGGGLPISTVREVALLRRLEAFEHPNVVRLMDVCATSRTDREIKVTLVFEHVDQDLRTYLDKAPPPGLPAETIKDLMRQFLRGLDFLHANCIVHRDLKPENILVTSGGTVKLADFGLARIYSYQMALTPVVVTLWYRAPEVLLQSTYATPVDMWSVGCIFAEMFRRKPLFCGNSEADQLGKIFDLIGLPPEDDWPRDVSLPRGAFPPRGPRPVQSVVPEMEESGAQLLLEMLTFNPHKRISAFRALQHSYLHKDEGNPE
Chain of CDK4/Cyclin D1 (P24385 whole entry partner, the tested form may be a part): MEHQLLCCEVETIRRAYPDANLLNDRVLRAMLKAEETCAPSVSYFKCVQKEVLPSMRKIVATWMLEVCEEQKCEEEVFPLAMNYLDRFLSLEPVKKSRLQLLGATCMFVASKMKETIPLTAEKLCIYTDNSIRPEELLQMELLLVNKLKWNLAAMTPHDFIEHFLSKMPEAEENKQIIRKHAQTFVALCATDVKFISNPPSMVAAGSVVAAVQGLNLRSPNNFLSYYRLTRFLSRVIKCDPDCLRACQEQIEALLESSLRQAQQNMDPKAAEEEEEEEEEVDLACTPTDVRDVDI
Experimental: The CDK4 and CDK1 inhibitory activity of the CDK4/6-FLT3 inhibitors was determined with a filtration kinase assay. The compounds, kinase and substrate diluted in the kinase buffer (20 mM Tris, pH7.4, 50 mM NaCl, 1 mM DTT, 0.1% BSA) were sequentially added to a 96-well Multiscreen HTS filtration plate (Millipore). The final 100 μL reaction mixture in each well contained 0.3 μg of CDK4/Cyclin D1 or CDK1/Cyclin B (Cell Signaling Technology), 1 μg of Rb fragment (aa773-928, Millipore) for the CDK4 assay or 5 μg of histone H1 for the CDK1 assay and 1 μCi of [^33P]-ATP. The mixture was incubated at room temperature for 1 hour. The proteins in the reaction were then precipitated and washed with cold TCA solution using an aspiration/filtration vacuum system. The plates were dried at room temperature, and the retained radioactivity was measured by scintillation counting.
as §1

[3] = biological target: FLT3 enzyme (GST-FLT3 fusion) (Homo sapiens (Human), UniProt P36888); experiment: FLT3 HTRF kinase assay; assay type: biochemical; conditions: 116 μM ATP
Chain of FLT3 enzyme (GST-FLT3 fusion) (P36888 27-993): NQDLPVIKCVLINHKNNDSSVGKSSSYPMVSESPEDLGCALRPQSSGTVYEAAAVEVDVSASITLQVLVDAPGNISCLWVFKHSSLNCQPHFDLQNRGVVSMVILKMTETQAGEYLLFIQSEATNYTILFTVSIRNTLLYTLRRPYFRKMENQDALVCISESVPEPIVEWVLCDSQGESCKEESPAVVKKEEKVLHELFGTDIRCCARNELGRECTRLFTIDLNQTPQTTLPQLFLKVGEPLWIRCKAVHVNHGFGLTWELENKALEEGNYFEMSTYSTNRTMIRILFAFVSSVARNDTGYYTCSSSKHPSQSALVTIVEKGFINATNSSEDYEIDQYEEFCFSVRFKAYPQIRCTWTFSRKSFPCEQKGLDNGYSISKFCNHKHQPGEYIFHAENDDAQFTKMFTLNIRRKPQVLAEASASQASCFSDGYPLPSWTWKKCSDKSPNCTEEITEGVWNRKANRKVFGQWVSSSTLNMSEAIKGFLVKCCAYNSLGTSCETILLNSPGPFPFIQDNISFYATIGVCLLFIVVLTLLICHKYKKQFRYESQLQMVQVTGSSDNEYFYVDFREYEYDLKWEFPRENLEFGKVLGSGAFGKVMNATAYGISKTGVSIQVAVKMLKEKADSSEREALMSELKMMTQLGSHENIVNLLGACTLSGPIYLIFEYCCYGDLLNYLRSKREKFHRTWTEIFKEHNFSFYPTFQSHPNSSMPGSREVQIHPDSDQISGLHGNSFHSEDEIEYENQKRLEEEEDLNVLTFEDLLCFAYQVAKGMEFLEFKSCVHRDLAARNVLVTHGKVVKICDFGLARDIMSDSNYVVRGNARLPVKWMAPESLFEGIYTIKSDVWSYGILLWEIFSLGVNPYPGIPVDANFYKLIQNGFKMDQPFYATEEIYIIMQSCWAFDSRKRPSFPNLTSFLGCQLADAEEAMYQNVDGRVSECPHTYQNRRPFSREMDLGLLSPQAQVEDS
Experimental: The FLT3 inhibitory activity of the CDK4/6-FLT3 inhibitors was determined with a HTRF kinase assay. The FLT3 enzyme (GST-FLT3 fusion) was purchased from Carna Biosciences. An ULight-labeled synthetic peptide derived from human Janus kinase 1 (aa1015-1027, ULight-JAK1, PerkinElmer) was utilized as the phosphoacceptor substrate. The assay was conducted in a 384-well white OptiPlate (PerkinElmer). The 20 μL reaction mixture contained 50 nM ULight-JAK1, 116 μM ATP, 0.0385 ng/μL FLT3 and dilutions of test compounds in the kinase buffer (50 mM Hepes, pH 7.6, 1 mM EGTA, 10 mM MgCl2, 2 mM DTT, and 0.005% Tween 20). The reaction was allowed to proceed for 1 hour at room temperature and was stopped by adding 20 μL of 10 mM EDTA, 2 nM LANCE® Eu-W1024 anti-phospho-tyrosine antibody in LANCE® detection buffer (PerkinElmer). The plates were incubated at room temperature for 2 hours after addition of detection reagents and then read on an Envision multimode reader (PerkinElmer).
as §1

Row | SMILES | inhibition of neointima formation (neointima formation) | IC50 (MOLM13 cells) | inhibition of tumor growth (tumor volume) ([1]; 12.5-50 mg/kg, twice daily (BID), 10 days) | tumor volume versus vehicle treated group (RMANOVA) ([1]; all doses) | inhibition of tumor growth (tumor volume) ([2]; 6.25-150 mg/kg, twice daily (BID), 10 days) | tumor volume versus vehicle treated group (RMANOVA) ([2]; all doses) | IC50 (CDK4/Cyclin D1) | IC50 [3]
1 | COc1ccc(CNc2nc(N(CCO)CCO)nc3c2ncn3C(C)C)cc1 [CVT-313] | significant inhibition of neointima formation | – | – | – | – | – | – | –
2 | C[C@H]1CC[C@H](n2c3cnccc3c3cnc(Nc4ccc5c(n4)CCN(C(=O)CO)C5)nc32)CC1 [Example 5, 2-hydroxy-1-(2-((9-((1r,4r)-4-methylcyclohexyl)-9H-pyrido[4′,3′:4,5]pyrrolo[2,3-d]pyrimidin-2-yl)amino)-7,8-dihydro-1,6-naphthyridin-6(5H)-yl)ethanone] | – | 19 nM | dose dependent anti-tumor activity; also recorded: Dose-dependent inhibition of tumor growth | statistically different from the vehicle treated group | dose dependent anti-tumor activity; also recorded: Dose-dependent inhibition of tumor growth | statistically different from the vehicle treated group | 2.4 nM | 1.5 nM
